Molecules are shown by their SMILES.

The subject of series [1] is Dengue virus. The series is described as follows: Antiviral activity against DENV infected in human Huh-7 cells assessed as reduction in viral growth incubated for 72 hrs by flow cytometry. It counts as functional, organism-based. The following applies: Huh-7, 72 h.
Series [2] in a line: Cytotoxicity against human Huh-7 cells infected with DENV assessed as reduction in cell viability by microplate spectrophotometry. The class given is toxicity, cell-based.
Series [3] has as its system Dengue virus. As to the kind of experiment: Antiviral activity against DENV infected in human Huh-7 cells assessed as percent of infected cells at 50 uM incubated for 72 hrs by flow cytometry relative to control. The class given is functional.
Series [4] in a line: Selectivity index, ratio of CC50 for human Huh-7 cells to EC50 for DENV infected in Huh-7 cells. The class given is toxicity, cell-based. The following applies: read-out: Selectivity Index.
Series [5] has as its system Dengue virus. The series is described as follows: Antiviral activity against DENV infected in human Huh-7 cells assessed as percent of infected cells at 12.5 uM incubated for 72 hrs by flow cytometry relative to control. It counts as functional.

For the compound `Brc1cccc(/N=N/Nc2ccccn2)c1`, the EC50 with Dengue virus [1] was found to be 8.45 µM. Moreover, the CC50 in series [2] was found to be 27.4 µM. Further, the Activity entry with Dengue virus [3] is reported as “<=20%”.

In the case of `FC(F)(F)c1ccc(/N=N/Nc2ccncc2)cc1`, the CC50 in series [2] was found to be 11.9 µM.

On to `COc1ccc(/N=N/Nc2ccncc2)cc1`, for which, in the series on Dengue virus [1], the EC50 amounted to 48.1 µM. Further, the CC50 in series [2] is 28.5 µM. In the series on Dengue virus [3], the Activity was 22%.

On to `CCN(CC)/N=N/c1ccc(OC)cc1`, for which, in the series on Dengue virus [1], the EC50 is more than 50 µM. Also, the CC50 in series [2] is 24.4 µM. In addition, the Activity in the series on Dengue virus [3] is on record as 22%.

For `COc1ccc(/N=N/n2ccnc2)cc1`, the EC50 with Dengue virus [1] was 32.4 µM. In addition, in series [2], the CC50 came to 72 µM. Also, the selectivity ratio in series [4] turned out to be 2.22. For the same compound, the Activity in the series on Dengue virus [3] worked out at 22%.

For the compound `FC(F)(F)c1ccc(/N=N/n2ccnc2)cc1`, the EC50 in the series on Dengue virus [1] was 7.82 µM. The CC50 in series [2] was more than 100 µM. Further, the selectivity ratio in series [4] is more than 12.8. Moreover, the Activity result in the series on Dengue virus [3] was “<=20%”; in the series on Dengue virus [5] it was 0%.

As for `c1ccc(/N=N/Nc2ccccn2)cc1`, the EC50 in the series on Dengue virus [1] was found to be 10.6 µM. Further, the CC50 in series [2] was determined as 22.1 µM. The Activity entry with Dengue virus [3] was “<=20%”.

As for `CN(/N=N/c1cccnc1)c1ccccc1`, the EC50 in the series with Dengue virus [1] came to 11.7 µM. Besides, in series [2], the CC50 amounted to 20.6 µM.

Take `c1cncc(/N=N/N2CCCc3ccccc32)c1`: the EC50 in the series on Dengue virus [1] came out at 7.92 µM. Further, in series [2], the CC50 is 7.09 µM. Also, the Activity in the series on Dengue virus [3] came to 22%.

Consider `COc1ccc(/N=N/Nc2ncccc2C)cc1`, for which the EC50 in the series on Dengue virus [1] is 11.5 µM. For the same compound, the CC50 in series [2] is more than 100 µM. For the same compound, the Activity with Dengue virus [3] worked out at 22%.

On to `Brc1ccc(/N=N/Nc2ccccn2)cc1`, for which the EC50 in the series with Dengue virus [1] was 8.08 µM. Moreover, the CC50 in series [2] was determined as 75.6 µM. In addition, in series [4], the selectivity ratio was found to be 9.36. Also, the Activity entry in the series with Dengue virus [3] is reported as “<=20%”.

Consider `COc1ccc(/N=N/Nc2ccccn2)cc1`, for which the EC50 in the series on Dengue virus [1] was less than 1.56 µM. For the same compound, in series [2], the CC50 was found to be 15.5 µM. Also, in the series with Dengue virus [3], the Activity result is on record as “<=20%”.

Regarding `O[C@H]1[C@H]2c3cc4c(cc3CN3CCC(=C[C@@H]1O)[C@H]23)OCO4` [LYCORINE], the EC50 in the series on Dengue virus [1] is 1.7 µM.

As to `NC(=O)c1ncn([C@@H]2O[C@H](CO)[C@@H](O)[C@H]2O)n1` [RIBAVIRIN], the EC50 in the series with Dengue virus [1] is 40.8 µM.
